In one experiment the target is T1, TLR8 (Homo sapiens, UniProt Q9NR97).
T1 construct: expressed in transfected cells; host or cells: HEK293
T1 sequence (Q9NR97 27-1041): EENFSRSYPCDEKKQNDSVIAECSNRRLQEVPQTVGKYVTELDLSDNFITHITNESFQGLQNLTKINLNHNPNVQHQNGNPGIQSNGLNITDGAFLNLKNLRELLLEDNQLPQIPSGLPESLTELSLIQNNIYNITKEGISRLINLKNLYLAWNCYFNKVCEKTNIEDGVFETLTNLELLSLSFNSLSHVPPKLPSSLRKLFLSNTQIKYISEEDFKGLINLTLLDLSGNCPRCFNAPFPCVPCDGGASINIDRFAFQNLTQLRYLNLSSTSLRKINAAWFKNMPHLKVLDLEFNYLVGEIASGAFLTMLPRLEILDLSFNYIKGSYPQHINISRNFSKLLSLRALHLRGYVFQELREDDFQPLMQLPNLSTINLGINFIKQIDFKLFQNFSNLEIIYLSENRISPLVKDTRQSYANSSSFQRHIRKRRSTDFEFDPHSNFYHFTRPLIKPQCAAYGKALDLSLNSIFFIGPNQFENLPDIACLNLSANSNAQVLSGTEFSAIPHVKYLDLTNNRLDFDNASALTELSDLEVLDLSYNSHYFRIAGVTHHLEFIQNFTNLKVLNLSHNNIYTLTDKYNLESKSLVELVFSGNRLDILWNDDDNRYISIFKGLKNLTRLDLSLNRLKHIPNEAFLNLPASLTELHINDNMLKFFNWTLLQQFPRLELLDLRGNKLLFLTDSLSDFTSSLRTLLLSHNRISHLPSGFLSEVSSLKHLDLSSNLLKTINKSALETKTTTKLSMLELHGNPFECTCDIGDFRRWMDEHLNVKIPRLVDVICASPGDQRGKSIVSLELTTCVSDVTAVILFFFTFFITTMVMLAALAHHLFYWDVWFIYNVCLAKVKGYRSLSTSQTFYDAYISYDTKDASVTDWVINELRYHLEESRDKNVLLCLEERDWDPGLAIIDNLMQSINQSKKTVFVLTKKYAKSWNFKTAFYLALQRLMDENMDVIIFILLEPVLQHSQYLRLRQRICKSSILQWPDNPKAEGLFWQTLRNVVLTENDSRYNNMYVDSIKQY
The experiment in a line: TLR8 antagonist screening, NF-κB-inducible SEAP reporter in HEK293 cells. The class given is cell-based. The conditions noted are these: for Average % Inhibition at TLR8: 10 μM, stimulated with CL075 at 1 μg/ml. As for the experimental part:
Stimulation of TLRs 2, 3, 4, 5, 7, 8, and 9 was determined by assessing activation of the transcription factor NF-κB in HEK293 cells that were engineered to express the corresponding receptors. Assessment of TLR stimulation was based on the use of an NF-κB-inducible secreted alkaline phosphatase (SEAP) reporter system in which the SEAP reporter was under the control of a promoter inducible by NF-κB. Thus, the degree of activation of TLRs can be indirectly quantified spectrophotometrically by measuring the amount of the SEAP reporter that is produced.
The appropriate TLR-expressing cells were plated in Growth Medium in a 96-well plate (25,000-50,000 cells/well). The cells were stimulated with the appropriate positive control ligand or no ligand was added (negative control). The positive control ligands were: HKLM was used to stimulate TLR2; poly(I:C) was used to stimulate TLR3; LPS was used to stimulate TLR4; Flagellin was used to stimulate TLR5; CL097 was used to stimulate TLR7; CL075 was used to stimulate TLR8; CpG oligodeoxynucleotide (ODN) 2006 was used to stimulate TLR9. To test whether (+)-morphinans could block that activation of the TLR, the cells were pretreated with an antagonist for 30 minutes prior to addition of the positive control ligand. […] After a 16-20 hr incubation period at 37° C. in a CO2 incubator, 20 μL of the cell culture supernatant was added to 180 μL of QUANTI-Blue™ Media (InvivoGen, San Diego, Calif.), and the resulting solutions were incubated at 37° C. for an additional 1-3 hours according to the manufacturer's instructions. The OD's of the samples were then read at 650 nm on a Beckman Coulter AD 340C Absorbance Detector.

The test system of experiment [1] is APAP-induced liver toxicity. In words: Acetaminophen (APAP)-induced hepatotoxicity model. The class given is in vivo, mouse. The conditions noted are these: APAP 500 mg/Kg ip, 12 hours post-APAP; for Protection from APAP-induced toxicity: test doses and timing per Table 6; for Liver histology scores (necrosis and hemorrhage) / Serum alanine transaminase (ALT) levels: vs APAP alone. As for the experimental part:
For this, APAP-induced liver toxicity was induced in male C57BL/6 mice aged between 8-10 weeks by a single intraperitoneal (ip) injection of APAP in PBS at a dose of 500 mg/Kg (Imaeda et al. (2009) J. Clin. Invest. 119(2):305-314). The ability of (+)-morphinans to reduce liver toxicity was tested in the following groups:
The (+)-morphinan (or PBS) was either administered as a single subcutaneous (sc) or ip injection concurrent with the APAP injection or one hour prior to the APAP injection.
The mice were sacrificed 12 hours post-APAP treatment. Liver samples were stained with H&E and analyzed for signs of necrosis and hemorrhage. Histology scores were assigned using the standard rating scale. The levels of serum alanine transaminase (ALT) were also measured in each animal using a standard assay.

In experiment [2] the test system is hepatic ischemia reperfusion (IR) injury. The experiment in a line: Hepatic ischemia reperfusion (IR) injury model. The format is in vivo, mouse. As for the experimental part: Anesthetized mice were subjected to 1 hour of hepatic ischemia by occluding the vasculature supplying the left and median lobes (ischemic lobes) of the liver by a microvascular clamp. Thereafter, the blood supply was resumed (reperfusion). Some animals were sacrificed after 3 hour of reperfusion, and others after 12 hours or reperfusion. The experimental group received Cmpd II-78 at a dose of 80 mg/kg given intraperitoneally 1 hour prior to starting ischemia. The compound was administered before the start of ischemia to mimic the presumed clinical timing of delivery.
Livers were sectioned, stained, examined, and scored (Suzuki scoring system) based on the presence and/or severity of sinusoidal congestion, cytoplasmic vacuolization, and necrosis of parenchymal cells, as indicated in the table below. The levels of serum alanine transaminase (ALT) were also measured using a standard assay.
IL-1β, MCP-1, and NLPR3 have pro-inflammatory and tissue damaging properties, and IL-1R antagonist (IL-1Ra) has anti-inflammatory and pro-reparative functions in the liver. MAP kinases are part of an important cytoplasmic signaling cascade that are known to be activated (i.e., phosphorylated) by IR. The levels of IL-1β, MCP-1, NLPR3, and IL-1Ra mRNA were determined in whole liver (at the 12 hour time point) using standard techniques (e.g., RT-PCR). The activation of MAP kinases was determined in whole liver lysates by Western blotting using phospho-specific antibodies (12 hour time point).

Setting [3] is: whole liver, 12 hours of reperfusion.

We go through 4 compounds from patent US10363251B2, “(+)-morphinans as antagonists of toll-like receptor 9 and therapeutic uses thereof” (Mallinckrodt LLC, priority 2009, dated 2019).

As to `C=CCN1CC[C@]23c4c5ccc(O)c4O[C@H]2C(=O)CC[C@]3(O)[C@H]1C5` [(+)-Naloxone, (+)-naloxone], the “Average % Inhibition at TLR8” value on TLR8 was found to be 24%. Moreover, in experiment [1], the “Protection from APAP-induced toxicity” value is given as “essentially no protection”; the “Liver histology scores (necrosis and hemorrhage)” value is on record as “did not improve the histology scores”; the “Serum alanine transaminase (ALT) levels” value is listed as “reduced the ALT levels”. Also, the “Protection from APAP-induced toxicity” value in experiment [1] (listed as (+)-naloxone) is reported as “did not affect acetaminophen-induced hepatotoxicity”.
For the compound `COc1ccc2c(c1O)[C@@]13CCN(C)[C@@H](C2)[C@H]1CC(OC)C(=O)C3` (stereo partly drawn) [Dihydrosinomenine, dihydrosinomenine], the “Average % Inhibition at TLR8” value at TLR8 is on record as 21%.
Take `CN[C@@H]1CC[C@]2(O)[C@@H]3Cc4ccc(O)c5c4[C@]2(CCN3CC2CC2)[C@@H]1O5` [II-78]: the “Histological Suzuki score (hepatic IR injury)” value in experiment [2] (80 mg/kg ip 1 hour prior to ischemia, 1 h ischemia, 3 and 12 hours of reperfusion) is “reduced hepatic ischemic reperfusion (IR) injury”. Besides, the “IR-induced serum ALT levels” value in experiment [2] (80 mg/kg ip, 3 and 12 hours of reperfusion) was “reduced IR-induced serum alanine transaminase (ALT) levels”. Further, in experiment [2] (80 mg/kg ip, 3 hour time point), the “Liver injury (serum ALT)” value was “trend towards reduction”. Further, in experiment [2] (80 mg/kg ip, 12 hour time point), the “Liver injury (serum ALT)” value was “significantly reduced liver injury”. Besides, the “IR-induced cleavage and activation of TLR9 (western blotting)” value in experiment [2] (liver) was “reduction of IR-induced cleavage and activation of LTR9”. Moreover, in experiment [2] (whole liver lysates, 12 hour time point), the “IR-induced activation of MAP kinases (western blotting)” value is reported as “reduction of IR-induced activation of MAP kinases”. Moreover, in experiment [2] (setting [3]), the “Anti-inflammatory molecule IL-1Ra mRNA relative to β-actin” value is “increased an anti-inflammatory molecule” and the “IR-induced pro-inflammatory cytokines (IL-1β, MCP-1, NLPR3 mRNA relative to β-actin)” value is listed as “reduced IR-induced pro-inflammatory cytokines”. In experiment [1], the “Protection from APAP-induced toxicity” value was “provided protection”; the “Liver histology scores (necrosis and hemorrhage)” value is “reduced to about half”; the “Serum alanine transaminase (ALT) levels” value is on record as “reduced significantly”.
Take `COC1=C[C@@H]2[C@@H]3Cc4ccc(OC)c(O)c4[C@]2(CCN3C)CC1=O` [Sinomenine, sinomenine]: the inhibition at 10 µM against TLR8 (HEK293, stimulated with CL075 at 1 μg/ml) worked out at 20%.

Usually inhibition stands for how much of the control response was suppressed. Read a high inhibition as a response far below the control.
